Results: publication PMC6010102, “N-thioalkylcarbazoles derivatives as new anti-proliferative agents: synthesis, characterisation and molecular mechanism evaluation” (Journal of Enzyme Inhibition and Medicinal Chemistry, 2018)

Key:
[1] = system: MCF-7 human breast cancer cells; assay: MTT cell viability, MCF-7; assay type: cell-based; details: MCF7, 72 h exposure, mean ± SD, read-out: Antiproliferative activity IC50, MCF-7
Excerpt: (§1) The six cell lines used in this work were purchased from American Type Culture Collection (ATCC, Manassas, VA). MCF-7 human breast cancer cells, oestrogen receptor (ER) positives, were maintained in Dulbecco’s Modified Eagle’s Medium/Nutrient Mixture F-12 Ham (DMEM/F12), supplemented with 5% foetal bovine serum (FBS) and 100 U/ml penicillin/streptomycin, as previously described. MDA-MB-231, human breast cancer cells, oestrogen receptor (ER) negative, were maintained in Dulbecco’s Modified Eagle’s Medium/Nutrient Mixture F-12 Ham (DMEM/F12), supplemented with 5% Newborn Calf Serum (NCS) and 100 U/ml penicillin/streptomycin. HeLa human epithelial cervix carcinoma cells, oestrogen receptor (ER) negative, and ISHIKAWA human endometrial adenocarcinoma cell, oestrogen receptor positive, were maintained in minimum essential medium (MEM), supplemented with 10% FBS, 100 U/ml penicillin/streptomycin and 1% non-essential amino acid. 3T3-L1 cells line of murine fibroblasts of embryonic type, were maintained in DMEM, supplemented with 10% NCS and 100 U/ml penicillin/streptomycin. MCF-10A human mammary epithelial cells were cultured in DMEM/F12 medium, supplemented with 5% horse serum (HS) (Eurobio, Les Ullis, Cedex, France), 100 U/ml penicillin/streptomycin, […] hydrocortisone, 20 ng/ml hEGF (human epidermal growth factor), 10 μg/ml insulin and […] cholera enterotoxin (Sigma-Aldrich, Milano, Italy). Cells were maintained at 37 °C in a humidified atmosphere of 95% air and 5% CO2 and periodically screened for contamination.
(§2) MDA-MB-231, MCF-7, HeLa and ISHIKAWA cells were grown in complete medium and, before being treated, they were serum deprived for 24 h, to allow cell cycle synchronisation. Then cells were grown in phenol red-free medium supplemented with 1% DCC (destran-coated charcoal treated) FBS, then treated with increasing concentrations (0.1, 1, 10, 20, 40, 100 µM) of each compound for 72 h. Compounds were dissolved in dimethylsulphoxide (DMSO) (Sigma, St. Louis, MO) and diluted in each cell medium. Untreated cells, used as a control, were added with DMSO alone (final concentration 0.1%). Cell viability was assessed using the 3-[4,5-dimethylthiazol-2-yl]-2,5-diphenyltetrazolium bromide reagent (MTT), according to the protocol from manufacturer (Sigma-Aldrich, Milan, Italy), as previously described[37] ^, [38]. For each sample, the mean absorbance, measured at 570 nm, was expressed as a percentage of the control and plotted versus drug concentration to determine for each cell line the IC50 values (namely, drugs concentrations able to reduce cell viability of 50% with respect to the control), using GraphPad Prism 5 Software (GraphPad Inc., San Diego, CA)[39]. Each experiment was carried out in quadruplicate. Standard deviations (SD) were shown.

Cytochrome c = Cytochrome c immunofluorescence in HeLa cells; assay type: cell-based, human; details: concentration equal to IC50, 24 h
Protocol: Cells were grown on glass coverslips in full media, then serum-deprived for 24 h and exposed to compound to test, at the indicated time. Then, they were PBS-washed, fixed with cold methanol (15 min/−20 °C) and washed three times (10 min/room temperature) with cold PBS containing 0.01% TritonX-100. After incubation (30 min/room temperature) with blocking solution (PBS, 2% BSA), they were incubated with primary antibody diluted in blocking solution (4 °C/overnight). The mouse anti-cytochrome c (556433) was purchased from BD Biosciences (Franklin Lakes, NJ) and used at 1:100 dilution. Coverslips were then washed three times with PBS, then fixed cells were incubated with the secondary antibody Alexa Fluor® 568 conjugate goat-anti-mouse (1:500, Thermo Fisher Scientific, Waltham, MA). Nuclei were stained using DAPI (Sigma-Aldrich, Milan, Italy) for 10 min at a concentration of 0.2 µg/mL then washed three times with PBS. Fluorescence was detected using a fluorescence microscope (Leica DM 6000 Leica, Frankfurt am Main, Germany). LASX software was used to acquire and process all images.

caspase-9 = assay: Caspase-Glo assay, caspase-9; assay type: cell-based, human; details: HeLa cells, concentration equal to IC50, 24 h
Protocol: (§3) Caspases-3/7, -8 and -9 activities were measured with the Caspase-Glo Assay, according to the guidelines of manufacturer (Caspase-Glo® 3/7, 8 and 9 Assay Systems, Promega Corporation, Madison, WI) as described in Iacopetta et al.[43].

[2] = system: MCF-10A human mammary epithelial cells; assay: MTT cell viability, MCF-10A; assay type: cell-based; details: non-tumoural cells, 72 h exposure, mean ± SD, read-out: Antiproliferative activity IC50, MCF-10a
Excerpt: as §1, §2

[3] = system: HeLa human epithelial cervix carcinoma cells; assay: MTT cell viability, HeLa; assay type: cell-based; details: 72 h exposure, mean ± SD, read-out: Antiproliferative activity IC50, HeLa
Excerpt: as §1, §2

caspase-8 = assay: Caspase-Glo assay, caspase-8; assay type: cell-based, human; details: HeLa cells, concentration equal to IC50, 24 h
Protocol: as §3

hTopoI = target: T1, hTopoI (Homo sapiens, UniProt P11387); assay: Human topoisomerase I relaxation assay; assay type: biochemical; details: direct in vitro assay, data not shown
T1 sequence (P11387 1-765): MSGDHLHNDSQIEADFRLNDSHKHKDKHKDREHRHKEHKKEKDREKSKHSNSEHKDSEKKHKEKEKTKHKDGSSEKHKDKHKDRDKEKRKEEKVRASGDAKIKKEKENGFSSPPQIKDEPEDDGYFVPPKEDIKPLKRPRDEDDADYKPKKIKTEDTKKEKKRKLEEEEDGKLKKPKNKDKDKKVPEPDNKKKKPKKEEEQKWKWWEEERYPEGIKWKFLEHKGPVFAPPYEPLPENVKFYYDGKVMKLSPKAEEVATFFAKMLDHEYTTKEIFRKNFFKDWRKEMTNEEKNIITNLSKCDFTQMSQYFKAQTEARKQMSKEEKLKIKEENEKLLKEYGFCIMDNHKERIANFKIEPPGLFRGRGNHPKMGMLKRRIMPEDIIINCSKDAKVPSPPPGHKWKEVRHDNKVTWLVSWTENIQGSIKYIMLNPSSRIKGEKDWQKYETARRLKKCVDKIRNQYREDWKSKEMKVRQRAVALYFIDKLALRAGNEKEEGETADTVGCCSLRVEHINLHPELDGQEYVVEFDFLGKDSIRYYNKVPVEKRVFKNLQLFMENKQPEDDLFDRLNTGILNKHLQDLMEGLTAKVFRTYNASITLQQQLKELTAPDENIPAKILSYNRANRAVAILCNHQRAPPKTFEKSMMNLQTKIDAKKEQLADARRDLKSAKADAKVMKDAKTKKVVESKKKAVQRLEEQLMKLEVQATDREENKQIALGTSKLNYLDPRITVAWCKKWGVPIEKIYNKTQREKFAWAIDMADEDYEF
Protocol: Human topoisomerase I relaxation assay: hTopoI relaxation assays were performed as reported in Iacopetta et al.[8].

- IC50 [1]: 54.9 ± 1 µM
- IC50 [3]: 11.3 ± 0.63 µM
- caspase-8 activity (caspase-8): no increase of caspase-8 activity
- hTopoI inhibition (hTopoI): no inhibition
SMILES: Cc1ccc(C)c2c1c1cc(Br)ccc1n2CCCCCCCS [5c, 7-(6-Bromo-1,4-dimethyl-9H-carbazol-9-yl)-heptane-1-thiol]
- Cytochrome c localisation (Cytochrome c): determines the release of Cytochrome c from mitochondria to the cytosol
- caspase-9 activity (caspase-9): little, but significant, rise of caspase-9 activity
- IC50 [2]: > 100 µM
